Measurements: ChEMBL document CHEMBL1795322, “Inhibition of the cellular function of perforin by 1-amino-2,4-dicyanopyrido[1,2-a]benzimidazoles” (Bioorg Med Chem, 2011)

Legend:
[1] = Toxicity against human KHYG-1 NK cells assessed as cell viability at 20 uM incubated for 24 hrs at 37 degC y Trypan blue exclusion method; type: cell-based; settings: read-out: Activity
[2] = target: T1, Perforin-1 (Homo sapiens) (UniProt P14222); assay: Inhibition of perforin released from human KHYG-1 NK cells assessed as inhibition of perforin mediated lysis of human K562 cells at 20 uM in presence of 10% mouse serum by [51Cr] release assay; type: cell-based
T1 sequence (whole entry): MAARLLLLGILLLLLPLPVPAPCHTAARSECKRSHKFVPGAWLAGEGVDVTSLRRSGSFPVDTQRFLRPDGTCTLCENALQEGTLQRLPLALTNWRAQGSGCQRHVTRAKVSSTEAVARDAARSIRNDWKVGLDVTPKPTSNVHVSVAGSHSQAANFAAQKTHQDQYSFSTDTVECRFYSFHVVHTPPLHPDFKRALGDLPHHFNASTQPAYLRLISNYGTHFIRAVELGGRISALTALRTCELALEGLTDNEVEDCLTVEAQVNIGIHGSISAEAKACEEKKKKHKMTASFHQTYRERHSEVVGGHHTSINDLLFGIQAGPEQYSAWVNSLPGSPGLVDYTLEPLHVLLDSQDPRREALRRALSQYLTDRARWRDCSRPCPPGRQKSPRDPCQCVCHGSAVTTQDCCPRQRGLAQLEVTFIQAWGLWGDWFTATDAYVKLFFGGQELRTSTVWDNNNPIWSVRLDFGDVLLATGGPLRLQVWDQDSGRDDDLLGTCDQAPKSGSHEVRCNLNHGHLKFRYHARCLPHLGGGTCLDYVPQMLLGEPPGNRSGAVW

[3] = target: T1, Perforin-1 (Homo sapiens); assay: Inhibition of perforin released from human KHYG-1 NK cells assessed as inhibition of perforin mediated lysis of human K562 cells at 20 uM in presence of 0.1% BSA by [51Cr] release assay; type: cell-based
[4] = Inhibition of recombinant perforin mediated lysis of human Jurkat cells pre-incubated for 30 mins with perforin followed by incubation with Jurkat cells at 37 degC for 4 hrs in presence of 0.1% BSA by [51Cr] release assay

| Structure (SMILES) | inhibition [2] | inhibition [3] | IC50 [4] | viability at 24 h, 20 µM [1] |
| --- | --- | --- | --- | --- |
| CN(C)C(=O)COc1ccc(-c2c(C#N)c(N)n3c(nc4ccccc43)c2C#N)cc1 | 25% | 34% |  | 78% |
| CC(C)NC(=O)COc1ccc(-c2c(C#N)c(N)n3c(nc4ccccc43)c2C#N)cc1 | 22% | 52% |  | 70% |
| Cc1cc2c(c(=S)[nH]1)C(=O)O/C2=C\c1csc2ccccc12 | 6% | 60% | 0.97 µM | 88% |
| N#Cc1c(-c2ccc(C(=O)NCCCO)cc2)c(C#N)c2nc3ccccc3n2c1N | 7% | 0% |  | 86% |
| N#Cc1c(-c2ccc(C(=O)NCCO)cc2)c(C#N)c2nc3ccccc3n2c1N | 12% | 4% |  | 89% |
| CCNC(=O)c1ccc(-c2c(C#N)c(N)n3c(nc4ccccc43)c2C#N)cc1 | 12% | 19% |  | 53% |
| N#Cc1c(-c2ccc(C(=O)NCCN3CCOCC3)cc2)c(C#N)c2nc3ccccc3n2c1N | 5% | 1% |  | 85% |
| Cc1cc2nc3c(C#N)c(-c4ccc(OCC(N)=O)cc4)c(C#N)c(N)n3c2cc1C | 5% | 38% |  | 62% |
| Cc1cccc2c1nc1c(C#N)c(-c3ccc(OCC(N)=O)cc3)c(C#N)c(N)n12 | 8% | 10% |  | 88% |
| CNC(=O)c1ccc(-c2c(C#N)c(N)n3c(nc4ccccc43)c2C#N)cc1 | 12% | 9% |  | 84% |
| CNC(=O)COc1ccc(-c2c(C#N)c(N)n3c(nc4ccccc43)c2C#N)cc1 | 42% | 41% |  | 84% |
| CCCNC(=O)COc1ccc(-c2c(C#N)c(N)n3c(nc4ccccc43)c2C#N)cc1 | 22% | 41% |  | 90% |
| N#Cc1c(-c2ccc(C(N)=O)cc2)c(C#N)c2nc3ccccc3n2c1N | 6% | 7% |  | 79% |
| N#Cc1c(-c2ccc(OCCO)cc2)c(C#N)c2nc3ccccc3n2c1N | 16% | 15% |  | 85% |

Further lines, with some results ahead:

| inhibition [2] | inhibition [3] | IC50 [4] | Structure (SMILES) | viability at 24 h, 20 µM [1] |
| --- | --- | --- | --- | --- |
| 0% | 0% |  | CC(O)CNC(=O)c1ccc(-c2c(C#N)c(N)n3c(nc4ccccc43)c2C#N)cc1 (configuration not stated) | 68% |
| 2% | 18% |  | N#Cc1c(-c2ccc(OCC(N)=O)cc2)c(C#N)c2nc3ccccc3n2c1N | 86% |
| 64% | 49% |  | CN(C)C(=O)CCc1ccc(-c2c(C#N)c(N)n3c(nc4ccccc43)c2C#N)cc1 | 96% |
| 7% | 36% |  | Cc1ccc2c(nc3c(C#N)c(-c4ccc(OCC(N)=O)cc4)c(C#N)c(N)n32)c1C | 60% |
| 20% | 15% |  | N#Cc1c(-c2ccc(C(=O)NCCc3ccncc3)cc2)c(C#N)c2nc3ccccc3n2c1N | 62% |
| 6% | 0% |  | N#Cc1c(-c2ccc(OCC(=O)NCCO)cc2)c(C#N)c2nc3ccccc3n2c1N | 92% |
| 0% | 0% |  | N#Cc1c(-c2ccc(C(=O)NCC(O)CO)cc2)c(C#N)c2nc3ccccc3n2c1N (configuration not stated) | 84% |
| 11% | 0% |  | CCNC(=O)COc1ccc(-c2c(C#N)c(N)n3c(nc4ccccc43)c2C#N)cc1 | 77% |
